# According to patent publication US20110245284A1, “Alkoxy- and Alkylthio-Substituted Anilinopyrimidines” (Bayer CropScience AG, priority 2008, published 2011):
# Tests used:
# [1] = logP by HPLC on reversed-phase columns (C 18), method [a], acidic range pH 2.3; assay type: physicochemical
# Protocol: (§1) The logP values were determined in accordance with EEC Directive 79/831 Annex V.A8 by HPLC (High Performance Liquid Chromatography) on reversed-phase columns (C 18), using the methods below:
# [a] The determination is carried out in the acidic range at pH 2.3 using the mobile phases 0.1% aqueous phosphoric acid and acetonitrile, linear gradient from 10% acetonitrile to 95% acetonitrile.
# Sphaerotheca fuliginea = experiment: Sphaerotheca test (cucumber) / protective; assay type: in vivo; conditions: Podosphaera fuliginea, 168 h, active compound concentration 500 ppm, evaluation 7 days after inoculation, read-out: efficacy
# Protocol: The plants are subsequently placed in a greenhouse at 70% relative atmospheric humidity and a temperature of 23° C.
# Leptosphaeria nodorum = Leptosphaeria nodorum test (wheat) / protective; assay type: in vivo; conditions: Parastagonospora nodorum, active compound concentration 500 ppm, evaluation 7-9 days after inoculation, read-out: efficacy
# Protocol: Thereafter, the plants are placed in a greenhouse at 90% relative atmospheric humidity and a temperature of 22° C.
# [2] = logP by LC-MS on reversed-phase columns (C 18), method [b], acidic range pH 2.7; assay type: physicochemical; conditions: pH 2.7, log p
# Protocol: as §1
# [b] The LC-MS determination in the acidic range is carried out at pH 2.7 using the mobile phases 0.1% aqueous formic acid and acetonitrile (contains 0.1% formic acid), linear gradient from 10% acetonitrile to 95% acetonitrile.
# Pyrenophora teres = Pyrenophora teres test (barley) / protective; assay type: in vivo; conditions: 192 h, active compound concentration 500 ppm, evaluation 8 days after inoculation, read-out: efficacy
# Protocol: After the spray coating has dried on, the plants are sprayed with a spore suspension of Pyrenophora teres. The plants remain in an incubation cabinet for 48 hours at 20° C. and 100% relative atmospheric humidity.
# [3] = logP by LC-MS on reversed-phase columns (C 18), method [c], neutral range pH 7.8; assay type: physicochemical; conditions: pH 7.8
# Protocol: as §1
# [c] The LC-MS determination in the neutral range is carried out at pH 7.8 using the mobile phases 0.001 molar aqueous ammonium bicarbonate solution and acetonitrile, linear gradient from 10% acetonitrile to 95% acetonitrile.
# Venturia inaequalis = experiment: Venturia test (apple) / protective; assay type: in vivo; conditions: 240 h, active compound concentration 100 ppm, evaluation 10 days after inoculation, read-out: efficacy
# Protocol: After the spray coating has dried on, the plants are inoculated with an aqueous conidia suspension of the apple scab pathogen Venturia inaequalis and then remain for 1 day in an incubation cabinet at about 20° C. and 100% relative atmospheric humidity.
# Alternaria solani = experiment: Alternaria test (tomato) / protective; assay type: in vivo; conditions: 72 h, active compound concentration 100 ppm, evaluation 3 days after inoculation, read-out: efficacy
# Protocol: The plants are then placed in an incubation cabinet at about 20° C. and 100% relative atmospheric humidity.
# Pyricularia oryzae = experiment: whole plant or invertebrate; assay type: in vivo; conditions: 120 h, read-out: efficacy
# Rhizoctonia solani = experiment: Rhizoctonia test (rice) / protective; assay type: in vivo; conditions: 96 h, active compound concentration 250 ppm, evaluation 4 days after inoculation, read-out: efficacy
Structure (SMILES),"chromatographic logP ([1]; pH 2.3, logP (pH2.3))",pest or weed control at 500 ppm (Sphaerotheca fuliginea) [%],pest or weed control at 500 ppm (Leptosphaeria nodorum) [%],chromatographic logP [2],"chromatographic logP ([1]; pH 2.3, log p)",pest or weed control at 500 ppm (Pyrenophora teres) [%],chromatographic logP [3],pest or weed control at 100 ppm (Venturia inaequalis) [%],pest or weed control at 100 ppm (Alternaria solani) [%],pest or weed control at 250 ppm (Pyricularia oryzae) [%],pest or weed control at 250 ppm (Rhizoctonia solani) [%]
"CCS(=O)(=O)C(C)c1cccc(Nc2ncc(C(F)(F)F)c(NC3CCC3)n2)c1 (stereo not drawn) [Example 40, N^4-cyclobutyl-N^2-{3-[1-(ethylsulphonyl)ethyl]phenyl}-5-(trifluoromethyl)pyrimidine-2,4-diamine]",2.89,≥ 70,≥ 70,2.89,–,–,–,–,–,–,–
CC[S+]([O-])c1cccc(Nc2ncc(Cl)c(NC3CC3)n2)c1 (stereo not drawn) [Example 114],–,≥ 70,≥ 70,1.48,1.49,≥ 70,2.11,–,–,–,–
CCC[S+]([O-])c1cccc(Nc2ncc(C(F)(F)F)c(NC3CCC3)n2)c1 (stereo not drawn) [Example 35],–,≥ 70,≥ 70,2.97,–,–,–,≥ 70,≥ 70,–,–
CC[S+]([O-])c1cccc(Nc2ncc(Br)c(NC3CCC3)n2)c1 (stereo not drawn) [Example 112],–,≥ 70,≥ 70,1.88,–,≥ 70,2.63,–,–,–,–
CCCC[S+]([O-])c1cccc(Nc2ncc(Cl)c(NC3CCC3)n2)c1 (stereo not drawn) [Example 171],–,–,≥ 70,2.48,–,–,3.31,≥ 70,≥ 70,–,–
COCCOc1cccc(Nc2ncc(Cl)c(NC3CC3C)n2)c1 (stereo not drawn) [Example 209],–,–,≥ 70,–,–,≥ 70,–,–,–,–,–
CCSC(C)c1cccc(Nc2ncc(Cl)c(NC(C)C)n2)c1 (stereo not drawn) [Example 131],–,≥ 70,≥ 70,2.91,–,≥ 70,4.65,–,–,–,–
CC(C)C[S+]([O-])c1cccc(Nc2ncc(Cl)c(NC3CC3)n2)c1 (stereo not drawn) [Example 162],–,–,≥ 70,2.11,–,–,2.81,–,≥ 70,–,–
COCC(O)c1cccc(Nc2ncc(Cl)c(NC3CC3)n2)c1 (stereo not drawn) [Example 194],–,≥ 70,≥ 70,1.26,–,≥ 70,–,–,–,–,–
CCC[S+]([O-])c1ccc(Nc2ncc(Cl)c(NC3CC3)n2)cc1 (stereo not drawn) [Example 98],–,≥ 70,≥ 70,1.78,–,≥ 70,–,–,–,≥ 80,–
"CCCS(=O)(=O)c1cccc(Nc2ncc(C(F)(F)F)c(NC3CCC3)n2)c1 [Example 34, N^4-Cyclobutyl-N^2-[3-(propylsulphonyl)phenyl]-5-(trifluoromethyl)pyrimidine-2,4-diamine]",3.46,≥ 70,≥ 70,3.46,–,–,–,–,–,–,≥ 80
CCCCS(=O)(=O)c1cccc(Nc2ncc(Br)c(NC3CC3)n2)c1 [Example 125],–,–,≥ 70,2.81,–,–,3.32,≥ 70,≥ 70,–,–
"CCCSc1cccc(Nc2ncc(Cl)c(NC(C)C)n2)c1 [Example 31, 5-Chloro-N^4-(propan-2-yl)-N^2-[3-(propylsulphanyl)phenyl]pyrimidine-2,4-diamine]",3.27,≥ 70,≥ 70,3.3,–,–,–,–,–,–,≥ 80
CCSCc1cccc(Nc2ncc(Cl)c(NC(C)C)n2)c1 [Example 33],–,≥ 70,≥ 70,2.61,–,≥ 70,–,≥ 70,≥ 70,–,–
CCC(c1cccc(Nc2ncc(Cl)c(NC3CC3)n2)c1)S(=O)(=O)CC (stereo not drawn) [Example 120],–,≥ 70,≥ 70,1.94,–,–,2.83,≥ 70,≥ 70,–,–
CCOCCCSc1cccc(Nc2ncc(Cl)c(NC3CC3)n2)c1 [Example 204],–,–,≥ 70,3.02,–,≥ 70,4.22,–,–,–,–
CCCC[S+]([O-])c1cccc(Nc2ncc(Cl)c(NC3CC3)n2)c1 (stereo not drawn) [Example 124],–,≥ 70,≥ 70,2.13,–,≥ 70,2.71,–,–,–,–
CCC(C)SC(C)c1cccc(Nc2ncc(C(F)(F)F)c(NC3CC3)n2)c1 (stereo not drawn) [Example 132],–,≥ 70,≥ 70,5.09,–,≥ 70,5.38,–,–,–,–
COCc1cccc(Nc2ncc(F)c(NC3CCC3)n2)c1 [Example 8],–,≥ 70,≥ 70,–,1.5,–,2.95,–,–,–,–
CCCSc1cccc(Nc2ncc(Cl)c(NC3CC3C)n2)c1 (stereo not drawn) [Example 63],–,–,≥ 70,3.58,–,–,–,≥ 70,≥ 70,–,–
"CC[S+]([O-])C(C)c1cccc(Nc2ncc(C(F)(F)F)c(NC3CCC3)n2)c1 (stereo not drawn) [Example 43, N^4-Cyclobutyl-N^2-{3-[1-(ethylsulphinyl)ethyl]phenyl}-5-(trifluoromethyl)pyrimidine-2,4-diamine]",2.55,≥ 70,≥ 70,2.55,–,–,–,–,–,–,–
COCc1cccc(Nc2ncc(Cl)c(NC3CCC3C)n2)c1 (stereo not drawn) [Example 207],–,–,≥ 70,2.44,–,–,4,–,–,≥ 80,≥ 80
CCOCCOc1cc(Nc2ncc(C(F)(F)F)c(NC3CC3)n2)ccc1C [Example 79],–,≥ 70,≥ 70,3.66,–,–,4.15,–,–,≥ 80,≥ 80
CCCCS(=O)(=O)c1cccc(Nc2ncc(Br)c(NC3CCC3)n2)c1 [Example 151],–,–,≥ 70,3.24,–,–,3.88,–,–,≥ 80,≥ 80
CCC(C)[S+]([O-])c1cccc(Nc2ncc(Cl)c(NC3CC3)n2)c1 (stereo not drawn) [Example 175],–,≥ 70,≥ 70,2.12,–,≥ 70,2.74,–,–,–,–
CCS(=O)(=O)c1cccc(Nc2ncc(Br)c(NC3CCC3)n2)c1 [Example 111],–,≥ 70,≥ 70,2.36,–,–,3.06,≥ 70,≥ 70,–,–
CCCS(=O)(=O)c1ccc(Nc2ncc(Cl)c(NC3CC3)n2)cc1 [Example 97],–,–,≥ 70,2.42,–,≥ 70,2.76,–,–,≥ 80,–
CCC(C)Sc1cccc(Nc2ncc(Cl)c(NC3CCC3)n2)c1 (stereo not drawn) [Example 6],–,–,≥ 70,4.14,–,–,–,–,–,≥ 80,≥ 80
COCc1cccc(Nc2ncc(Cl)c(NC3CC3C)n2)c1 (stereo not drawn) [Example 65],–,–,≥ 70,2.03,–,–,3.3,≥ 70,≥ 70,–,–
CCOCCSc1cccc(Nc2ncc(C(F)(F)F)c(NC3CC3)n2)c1 [Example 190],–,≥ 70,≥ 70,3.87,–,≥ 70,4.05,–,–,–,–
